Activity calls are given as the source filed them. Rule as the data show it, for most assays here: actives have a measured Kd and inactives only a lower limit.
Columns and labels:
[1] = target: Serine/threonine-protein kinase 10 (Homo sapiens, UniProt O94804)
[2] = target: T1, Ferrochelatase, mitochondrial (Homo sapiens, UniProt P22830)
T1 sequence (P22830 whole entry): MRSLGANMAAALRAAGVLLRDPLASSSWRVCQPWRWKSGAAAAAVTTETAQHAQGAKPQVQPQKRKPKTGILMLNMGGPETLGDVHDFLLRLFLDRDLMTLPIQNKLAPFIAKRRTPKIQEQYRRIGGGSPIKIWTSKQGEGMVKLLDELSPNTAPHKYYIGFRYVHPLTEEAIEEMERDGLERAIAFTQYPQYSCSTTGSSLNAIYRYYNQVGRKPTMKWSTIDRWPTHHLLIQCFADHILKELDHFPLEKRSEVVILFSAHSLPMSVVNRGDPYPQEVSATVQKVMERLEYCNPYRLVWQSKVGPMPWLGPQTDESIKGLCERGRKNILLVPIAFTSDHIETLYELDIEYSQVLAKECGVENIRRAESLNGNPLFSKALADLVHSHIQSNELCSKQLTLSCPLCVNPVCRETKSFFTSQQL

[3] = target: Casein kinase I isoform gamma-1 (Homo sapiens, UniProt Q9HCP0)
[4] = target: T2, Phosphatidylinositol 5-phosphate 4-kinase type-2 gamma (Homo sapiens, UniProt Q8TBX8)
T2 sequence (Q8TBX8 whole entry): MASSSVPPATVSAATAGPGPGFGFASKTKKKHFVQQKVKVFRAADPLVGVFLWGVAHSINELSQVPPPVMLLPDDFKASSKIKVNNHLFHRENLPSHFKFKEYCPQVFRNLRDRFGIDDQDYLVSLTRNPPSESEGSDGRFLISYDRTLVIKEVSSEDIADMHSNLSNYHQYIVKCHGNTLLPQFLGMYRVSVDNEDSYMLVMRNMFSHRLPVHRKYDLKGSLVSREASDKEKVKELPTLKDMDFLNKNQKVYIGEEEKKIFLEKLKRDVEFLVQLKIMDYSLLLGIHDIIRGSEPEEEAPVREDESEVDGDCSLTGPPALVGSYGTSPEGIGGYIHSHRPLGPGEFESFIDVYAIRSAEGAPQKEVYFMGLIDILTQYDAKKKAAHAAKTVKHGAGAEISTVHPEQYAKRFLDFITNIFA

[5] = target: T3, Ephrin type-B receptor 6 (Homo sapiens, UniProt O15197)
T3 sequence (O15197 whole entry): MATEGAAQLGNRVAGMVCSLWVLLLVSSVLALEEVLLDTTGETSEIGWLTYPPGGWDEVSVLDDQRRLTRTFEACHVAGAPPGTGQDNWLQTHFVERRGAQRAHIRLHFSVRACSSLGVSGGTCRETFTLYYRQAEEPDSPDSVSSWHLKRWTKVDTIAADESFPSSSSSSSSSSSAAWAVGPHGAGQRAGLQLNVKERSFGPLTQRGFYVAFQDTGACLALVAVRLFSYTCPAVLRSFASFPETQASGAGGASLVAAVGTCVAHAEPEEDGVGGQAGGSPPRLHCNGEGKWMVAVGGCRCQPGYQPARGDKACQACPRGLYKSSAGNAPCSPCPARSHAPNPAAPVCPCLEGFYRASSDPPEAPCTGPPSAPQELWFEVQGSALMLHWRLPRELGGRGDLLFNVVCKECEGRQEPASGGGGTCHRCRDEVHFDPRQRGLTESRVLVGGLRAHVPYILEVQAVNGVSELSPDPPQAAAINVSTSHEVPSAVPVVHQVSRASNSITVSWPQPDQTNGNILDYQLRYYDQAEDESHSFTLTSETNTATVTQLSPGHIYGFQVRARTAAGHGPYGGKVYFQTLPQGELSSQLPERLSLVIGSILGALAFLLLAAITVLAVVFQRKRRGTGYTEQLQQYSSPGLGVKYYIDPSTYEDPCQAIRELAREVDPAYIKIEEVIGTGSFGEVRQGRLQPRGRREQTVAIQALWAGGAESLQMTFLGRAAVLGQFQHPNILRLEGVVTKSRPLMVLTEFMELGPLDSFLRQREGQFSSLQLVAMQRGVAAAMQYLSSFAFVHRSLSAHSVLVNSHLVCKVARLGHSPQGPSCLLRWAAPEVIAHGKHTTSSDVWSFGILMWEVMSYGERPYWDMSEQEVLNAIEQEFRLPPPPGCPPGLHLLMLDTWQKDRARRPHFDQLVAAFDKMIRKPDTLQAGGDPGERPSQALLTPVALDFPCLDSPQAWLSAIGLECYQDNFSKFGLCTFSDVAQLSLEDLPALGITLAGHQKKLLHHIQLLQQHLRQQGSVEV

[6] = target: T4, Rab-like protein 3 (Homo sapiens, UniProt Q5HYI8)
T4 sequence (Q5HYI8 whole entry): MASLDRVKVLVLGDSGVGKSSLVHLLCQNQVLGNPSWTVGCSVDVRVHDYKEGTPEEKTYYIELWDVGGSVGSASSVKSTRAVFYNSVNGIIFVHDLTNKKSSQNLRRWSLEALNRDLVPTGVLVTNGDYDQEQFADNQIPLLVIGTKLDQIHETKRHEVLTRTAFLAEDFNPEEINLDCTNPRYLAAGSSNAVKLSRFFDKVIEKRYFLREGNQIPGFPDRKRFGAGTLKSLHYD
Also: in the data inactive means no Kd found up to 30 µM.

Serine/threonine-protein kinase 10, sequence (O94804 whole entry): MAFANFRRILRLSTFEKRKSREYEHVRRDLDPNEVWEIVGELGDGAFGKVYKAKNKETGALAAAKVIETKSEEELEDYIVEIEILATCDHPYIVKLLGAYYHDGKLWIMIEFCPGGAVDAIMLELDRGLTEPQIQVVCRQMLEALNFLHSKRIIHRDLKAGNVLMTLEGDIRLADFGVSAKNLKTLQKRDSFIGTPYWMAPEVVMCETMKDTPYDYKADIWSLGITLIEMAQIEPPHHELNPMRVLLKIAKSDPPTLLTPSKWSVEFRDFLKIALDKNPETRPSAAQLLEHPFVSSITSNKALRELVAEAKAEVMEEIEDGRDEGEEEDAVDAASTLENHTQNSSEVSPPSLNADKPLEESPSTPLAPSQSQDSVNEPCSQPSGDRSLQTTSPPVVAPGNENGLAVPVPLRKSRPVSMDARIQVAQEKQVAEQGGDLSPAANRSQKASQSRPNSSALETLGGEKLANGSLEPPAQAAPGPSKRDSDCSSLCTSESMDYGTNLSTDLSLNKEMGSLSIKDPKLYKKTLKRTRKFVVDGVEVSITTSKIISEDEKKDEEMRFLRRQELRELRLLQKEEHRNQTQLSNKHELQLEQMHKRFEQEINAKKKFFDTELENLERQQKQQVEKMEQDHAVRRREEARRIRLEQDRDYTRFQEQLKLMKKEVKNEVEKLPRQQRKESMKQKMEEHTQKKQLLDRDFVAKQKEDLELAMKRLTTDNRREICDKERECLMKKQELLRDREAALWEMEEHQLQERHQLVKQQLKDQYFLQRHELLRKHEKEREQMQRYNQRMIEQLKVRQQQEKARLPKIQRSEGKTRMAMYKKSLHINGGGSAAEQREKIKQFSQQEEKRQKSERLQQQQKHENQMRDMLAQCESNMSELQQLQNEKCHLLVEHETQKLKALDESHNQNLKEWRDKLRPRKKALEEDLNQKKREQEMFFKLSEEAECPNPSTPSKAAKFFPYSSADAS
Casein kinase I isoform gamma-1, sequence (Q9HCP0 whole entry, canonical isoform): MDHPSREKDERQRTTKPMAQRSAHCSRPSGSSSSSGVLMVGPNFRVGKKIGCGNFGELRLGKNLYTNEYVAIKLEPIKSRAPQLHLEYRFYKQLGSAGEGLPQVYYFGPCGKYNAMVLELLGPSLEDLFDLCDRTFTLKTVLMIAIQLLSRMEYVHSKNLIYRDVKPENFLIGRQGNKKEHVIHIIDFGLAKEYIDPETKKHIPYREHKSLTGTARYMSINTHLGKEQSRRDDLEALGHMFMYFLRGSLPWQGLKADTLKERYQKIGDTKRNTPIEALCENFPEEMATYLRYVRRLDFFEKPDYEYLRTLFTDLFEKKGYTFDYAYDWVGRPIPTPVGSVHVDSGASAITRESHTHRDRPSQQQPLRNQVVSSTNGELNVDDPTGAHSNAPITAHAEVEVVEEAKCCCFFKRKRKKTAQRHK

Row | Compound | Kd [1] | Kd [2] | Kd [3] | Kd [4] | Kd [5] | Kd [6]
1 | Cc1cc(-c2cc(OC(=O)c3ccccc3)ccc2Cl)cc2nnc(Nc3ccc(OCCN4CCCC4)cc3)nc12 [TG100-801] | > 30 µM (inactive) | > 30 µM (inactive) | > 30 µM (inactive) | > 30 µM (inactive) | > 30 µM (inactive) | > 30 µM (inactive)
2 | O=C(NOC[C@H](O)CO)c1ccc(F)c(F)c1Nc1ccc(I)cc1F [MIRDAMETINIB] | > 30 µM (inactive) | > 30 µM (inactive) | > 30 µM (inactive) | > 30 µM (inactive) | > 30 µM (inactive) | > 30 µM (inactive)
3 | CC(C)(O)CC(=O)NCCn1ccc2ncnc(Nc3ccc(Oc4cccc(C(F)(F)F)c4)c(Cl)c3)c21 [TAK-285] | > 30 µM (inactive) | > 30 µM (inactive) | > 30 µM (inactive) | > 30 µM (inactive) | 1.85 µM | > 30 µM (inactive)
4 | Cc1cc(C(=O)Nc2cc(Oc3ccc4nc(NC(=O)C5CC5)cn4n3)ccc2C)n(C)n1 [TAK-593] | > 30 µM (inactive) | > 30 µM (inactive) | > 30 µM (inactive) | > 30 µM (inactive) | > 30 µM (inactive) | > 30 µM (inactive)
5 | C=CCN(/C=C1/C(=O)O[C@H](COC)[C@@]2(C)C1=C(O)C(=O)C1=C2[C@H](OC(C)=O)C[C@]2(C)C(=O)CC[C@@H]12)CC=C [SONOLISIB] | > 30 µM (inactive) | > 30 µM (inactive) | > 30 µM (inactive) | > 30 µM (inactive) | > 30 µM (inactive) | > 30 µM (inactive)
6 | C[C@@H]1COC(Nc2ccc3ncnc(Nc4ccc(OCc5nccs5)c(Cl)c4)c3c2)=N1 [VARLITINIB] | > 30 µM (inactive) | 76.4 µM | > 30 µM (inactive) | > 30 µM (inactive) | > 30 µM (inactive) | > 30 µM (inactive)
7 | COCCN1CCN(Cc2ccc(-c3n[nH]c4c3C(=O)c3c(NC(=O)NN5CCOCC5)cccc3-4)cc2)CC1 [RGB-286638] | > 30 µM (inactive) | > 30 µM (inactive) | 3.18 µM (active) | 2.18 µM | > 30 µM (inactive) | > 30 µM (inactive)
8 | CNC(=O)c1ccc(Nc2ncc(C(F)(F)F)c(NCc3nccnc3N(C)S(C)(=O)=O)n2)cc1 [DEFACTINIB] | > 30 µM (inactive) | > 30 µM (inactive) | > 30 µM (inactive) | > 30 µM (inactive) | > 30 µM (inactive) | > 30 µM (inactive)
9 | C=CC(=O)Nc1cccc(Nc2nc(Nc3ccc(N4CCN(C(C)=O)CC4)cc3OC)ncc2C(F)(F)F)c1 [ROCILETINIB] | > 30 µM (inactive) | > 30 µM (inactive) | > 30 µM (inactive) | > 30 µM (inactive) | > 30 µM (inactive) | > 30 µM (inactive)
10 | Cc1ccc(C(=O)Nc2ccc(Oc3cc4cnn(C)c4cc3-c3cn[nH]c3)c(F)c2)c(=O)n1-c1ccc(F)cc1 [MERESTINIB] | > 30 µM (inactive) | > 30 µM (inactive) | > 30 µM (inactive) | > 30 µM (inactive) | > 30 µM (inactive) | > 30 µM (inactive)
11 | CCOc1ccn(-c2ccc(F)cc2)c(=O)c1C(=O)Nc1ccc(Oc2ccnc(N)c2Cl)c(F)c1 [BMS-777607] | > 30 µM (inactive) | > 30 µM (inactive) | > 30 µM (inactive) | > 30 µM (inactive) | > 30 µM (inactive) | > 30 µM (inactive)
12 | O=C(O)c1ccc2c(c1)nc(Nc1cccc(Cl)c1)c1ccncc12 [SILMITASERTIB] | 0.096 µM (active) | > 30 µM (inactive) | > 30 µM (inactive) | 1.11 µM (active) | > 30 µM (inactive) | > 30 µM (inactive)
13 | Cc1c(Cn2c(C)nc3c(C(=O)O)cc(N4CCOCC4)cc32)cccc1C(F)(F)F [GSK-2636771] | > 30 µM (inactive) | > 30 µM (inactive) | > 30 µM (inactive) | > 30 µM (inactive) | > 30 µM (inactive) | > 30 µM (inactive)
14 | Cn1cc(-c2[nH]c3cc(NC(=O)[C@H](N)C4CCCCC4)cc4c3c2C=NNC4=O)cn1 | > 30 µM (inactive) | > 30 µM (inactive) | > 30 µM (inactive) | > 30 µM (inactive) | 1.53 µM | > 30 µM (inactive)
15 | NC(=O)c1ccc(N(C(N)=O)c2c(F)cccc2F)nc1-c1ccc(F)cc1F [VX-702] | > 30 µM (inactive) | > 30 µM (inactive) | > 30 µM (inactive) | > 30 µM (inactive) | > 30 µM (inactive) | > 30 µM (inactive)
16 | COc1cc2ncnc(Nc3ccc(F)c(Cl)c3)c2cc1NC(=O)/C=C/CN1CCCCC1 [DACOMITINIB ANHYDROUS] | > 30 µM (inactive) | > 30 µM (inactive) | > 30 µM (inactive) | > 30 µM (inactive) | > 30 µM (inactive) | > 30 µM (inactive)
17 | COc1cc(F)c(F)c(Nc2ccc(I)cc2F)c1NS(=O)(=O)C1(C[C@H](O)CO)CC1 [REFAMETINIB] | > 30 µM (inactive) | > 30 µM (inactive) | > 30 µM (inactive) | > 30 µM (inactive) | > 30 µM (inactive) | > 30 µM (inactive)
18 | O[C@H]1CC[C@H](Nc2ncc3nc(Nc4c(F)cc(F)cc4F)n([C@H]4CCOC4)c3n2)CC1 [TANZISERTIB] | > 30 µM (inactive) | > 30 µM (inactive) | > 30 µM (inactive) | > 30 µM (inactive) | > 30 µM (inactive) | > 30 µM (inactive)
19 | CCc1nc(C(N)=O)c(Nc2ccc(N3CCC(N4CCN(C)CC4)CC3)c(OC)c2)nc1NC1CCOCC1 [GILTERITINIB] | 0.149 µM (active) | > 30 µM (inactive) | > 30 µM (inactive) | > 30 µM (inactive) | 0.241 µM | 4.83 µM
20 | C#Cc1cccc(Nc2ncnc3cc4c(cc23)OCCOCCOCCO4)c1 [ICOTINIB] | 0.227 µM (active) | > 30 µM (inactive) | > 30 µM (inactive) | 4.66 µM (active) | > 30 µM (inactive) | > 30 µM (inactive)
21 | COc1cc2ncnc(Nc3ccc(O)cc3)c2cc1OC [WHI-P131] | 2.63 µM (active) | > 30 µM (inactive) | > 30 µM (inactive) | > 30 µM (inactive) | > 30 µM (inactive) | > 30 µM (inactive)
22 | Cn1c(=O)n(-c2ccc(C(C)(C)C#N)cc2)c2c3cc(-c4cnc5ccccc5c4)ccc3ncc21 [DACTOLISIB] | > 30 µM (inactive) | > 30 µM (inactive) | > 30 µM (inactive) | > 30 µM (inactive) | > 30 µM (inactive) | > 30 µM (inactive)
23 | FC(F)(F)c1ccc(CNc2ccc(Cc3c[nH]c4ncc(Cl)cc34)cn2)cn1 [PEXIDARTINIB] | > 30 µM (inactive) | > 30 µM (inactive) | > 30 µM (inactive) | > 30 µM (inactive) | > 30 µM (inactive) | > 30 µM (inactive)
